According to patent US12458659B2, “Methods for treating macrophage-mediated diseases, and methods of identifying agents useful therefore” (The Regents of the University of California, priority 2019, dated 2025):

Key:
Format in all cases: cell-based, mouse
[1] = tested on: NLRP3 inflammasome components; test: Immunoblot of NLRP3 inflammasome components in BMDM; conditions: BMDM pretreated with RSM932A
Method: Protein Immunoblotting and ELISA—Mitochondria were isolated using Mitochondria Isolation kit. Whole cell lysates were prepared in NP40 buffer containing a protease inhibitor cocktail and a phosphatase inhibitor cocktail, and supernatants were analyzed by SDS-PAGE. Proteins were transferred into PVDF membranes, blocked in 5% BSA and 1×TBST for 1 hr, and incubated with indicated antibodies overnight. Secondary antibodies were added for 1 hr and detection was done using CLARITY™ Western ECL Substrate (Biorad). Paired antibodies (capture and detection) and standard recombinant mouse IL-1β (R&D Systems), and TNF and IL-6 (eBioscience) were used to determine cytokine concentrations according to manufacturer's instructions.

NLRP3 inflammasome = test: IL-1β release by LPS-primed macrophages stimulated with NLRP3 activators (ELISA); conditions: LPS-primed
Method: Macrophage culture and stimulation—Femurs and tibias from C57BL/6 mice, Ampkα1^−/− mice, and Il10rb^−/− mice at 6-10 weeks of age were used to generate bone-marrow-derived macrophages (BMDM) as described (Hornung et al., 2008). Macrophages were cultured in DMEM supplemented with 10% FBS, 20% L929-cell conditioned medium, and 100 U/ml penicillin-streptomycin for 7-10 days. Bone marrow was isolated from MWS Nlrp3^A350VneoRCreT, FCAS Nlrp3^L351PneoCreT and NOMID Nlrp3^D301NneoCreT conditional knock-in mice (Bonar et al., 2012; Brydges et al., 2009), and were allowed to differentiate over 7 days with addition of fresh mouse recombinant GMCSF every three days. (Z)-4-hydroxitamoxifen at 0.4 μg/ml was added to cells 24 hr prior to treatment to induce the mutant Nlrp3 allele. Immortalized mouse BMDM were grown in DMEM supplemented with 10% FBS and 100 U/ml penicillin-streptomycin. All cells were grown at 37° C. with 5% CO2. NLRP3 inflammasome activation was induced priming for 4 hr with ultrapure LPS (100 ng/ml) followed by treatment with the NLRP3 activators ATP (4 mM) and nigericin (10 μM) for 45 min, unless otherwise indicated, and monosodium urate (MSU) crystals (400 μg/ml) and 1,2-dioleoyl-3-trimethylammoniumpropane (DOTAP) liposomes (50 μg/ml) for 3 hr. In Nlrp3 mutant macrophages IL-1b production was induced by LPS treatment for 16 hr at 37° C., whereas FCAS macrophages were incubated at 32° C. without LPS addition. AIM2 inflammasome activation was induced by 4 hr LPS priming and transfection with lipofectamine 3000 and the AIM2 activator poly(dA:dT) (1 μg/ml) for 8 hr. For choline deprivation experiments, the cells were cultured in CMRL1066 medium with or without choline for 2-3 hr before priming with LPS and kept during the experiment.
Protein Immunoblotting and ELISA—Mitochondria were isolated using Mitochondria Isolation kit. Whole cell lysates were prepared in NP40 buffer containing a protease inhibitor cocktail and a phosphatase inhibitor cocktail, and supernatants were analyzed by SDS-PAGE. […]

BMDM = test: Cytosolic mtDNA (QPCR); conditions: RSM932A-pretreated BMDM, LPS-primed, ATP or nigericin
Method: Cellular fractionation and measurement of cytosolic mtDNA—BMDM were primed with LPS and stimulated with an NLRP3 inflammasome activator. Cellular fractionation was performed using Mitochondrial Isolation kit (ThermoScientific) according to manufacturer's instructions. Cytosolic mtDNA was analyzed as described (Nakahira et al., 2011). Briefly, DNA was isolated from 300 μl of the cytosolic fractions using All Prep DNA/RNA kit, and mitochondrial DNA encoding cytochrome c oxidase 1 and D-Loop were measured by QPCR with an equal volume of the DNA solution. Nuclear DNA encoding 18S ribosomal RNA and Tert was used for normalization. Primer sequences were obtained from the NIH qPrimerDepot (mouseprimerdepot.nci.nih.gov) and provided by Integrated DNA Technologies, as set forth below.

[2] = tested on: choline mobilization via the Kennedy pathway; test: Choline, phosphocholine and phosphatidylcholine content of LPS-stimulated BMDM (NMR, MS); conditions: RSM932A-pretreated BMDM, LPS 4 hr
Method: Choline and Phosphocholine Analysis by NMR—BMDM were treated with LPS for 4 hr and then were collected and processed for NMR analysis as described (Guma et al., 2015a; Tiziani et al., 2009). Polar metabolite isolation was performed using a modified Bligh-Dyer procedure (Wu et al., 2008). Extracts were dried using a CentriVap refrigerated vacuum concentrator (Labconco, Kansas City, MO, USA). Dried extracts were reconstituted in 100 mM phosphate buffer (pH 7.0) prepared in 10% H2O/90% D2O (Sigma) that contained 0.5 mM sodium 3-(trimethylsilyl)propionate-2,2,3,3,-d4 (TMSP) as the internal standard. One-dimensional ^1H NMR spectra were acquired on a Bruker Avance III 500 MHz with 1.7 mm TCI MicroCryoProbe system (Bruker BioSpin Corp., Billerica, MA) equipped with an autosampler at 300 K and processed as previously described (Lodi et al., 2017; Lu et al., 2017; Ludwig and Gunther, 2011). Metabolite assignment and quantification were performed using the Chenomx 8.2 NMR Suite (Chenomx Inc., Edmonton, Alberta, Canada), the Birmingham Metabolite Library (Ludwig et al., 2012), and the Human Metabolome Database (Wishart et al., 2012).
Total phosphatidylcholine and mitochondrial lipids analysis by mass spectrometry—Total phosphatydilcholine (PC) analysis was measured in RSM932A-pretreated BMDM stimulated with LPS for 4 hr, while mitochondrial lipids were measured in mitochondria isolated from BMDM cultured in control or choline deficient medium and subjected to different treatments for 24 hr. Samples were processed for UHPLC-MS/MS analysis and analysis was performed on a hybrid quadrupole-Orbitrap mass spectrometer (Q Exactive, Thermo Scientific, Bremen, Germany) coupled to an Accela 1250 UHPLC system equipped with a quaternary pump, vacuum degasser, and open autosampler with temperature controller (6° C.; Fisher Scientific, San Jose, CA, USA). […]

expression of NLRP3 inflammasome components (caspase-1, NLRP3, ASC, pro-IL-1β induced by LPS) [1]: did not alter
Compound: C/[N+](c1ccc(Cl)cc1)=c1\ccn(Cc2ccc(-c3ccc(Cn4cc/c(=[N+](/C)c5ccc(Cl)cc5)c5ccccc54)cc3)cc2)c2ccccc12 [RSM932A]
IL-1β production (NLRP3 inflammasome; BMDM pretreated overnight with 5 μM RSM932A, ATP or MSU-stimulated, compared with ChoKα knockdown (reduced)): produced a similar effect
reduction of MSU-induced IL-1β release (NLRP3 inflammasome; MSU-stimulated BMDM pretreated overnight with 5 μM RSM932A, p<0.005): 71%
amount of cytosolic mtDNA (BMDM): reduced
LPS-induced increase in cellular content of phosphocholine, glycerol-3-phosphocholine and phosphatidylcholine (PC) [2]: blocked
